Results on five compounds are retold here after patent US6362208B1, “Anilide compounds and drugs containing the same” (Kowa Company, Ltd., priority 1997, dated 2002).

In data set [1] the target is T1, ACAT, small intestine-derived enzyme (Oryctolagus cuniculus, UniProt G1SFD9).
T1 sequence (G1SFD9 1-524): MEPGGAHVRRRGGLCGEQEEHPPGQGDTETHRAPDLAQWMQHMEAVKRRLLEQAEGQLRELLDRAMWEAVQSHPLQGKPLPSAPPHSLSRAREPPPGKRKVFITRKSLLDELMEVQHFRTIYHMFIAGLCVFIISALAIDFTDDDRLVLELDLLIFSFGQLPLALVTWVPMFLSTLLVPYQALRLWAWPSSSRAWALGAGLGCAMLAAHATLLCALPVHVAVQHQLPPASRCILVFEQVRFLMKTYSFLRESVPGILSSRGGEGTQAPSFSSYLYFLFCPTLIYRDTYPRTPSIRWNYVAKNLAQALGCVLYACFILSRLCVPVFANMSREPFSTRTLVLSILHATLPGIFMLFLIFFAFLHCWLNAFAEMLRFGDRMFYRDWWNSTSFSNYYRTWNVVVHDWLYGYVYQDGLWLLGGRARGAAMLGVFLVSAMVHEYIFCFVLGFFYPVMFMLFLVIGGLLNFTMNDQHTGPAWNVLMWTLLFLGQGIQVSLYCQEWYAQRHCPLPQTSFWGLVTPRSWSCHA
The experiment in a line: ACAT inhibitory action, small intestine-derived enzyme. The data set is classed as biochemical. The note with it: rabbit small intestine enzyme solution, 14C-Oleoyl-CoA, 37° C., 3 minutes. The protocol:
(§1) In a conventional manner, microsome was prepared from the thoracic aorta of a rabbit fed with a 1% cholesterol diet for 8 weeks, which was then suspended in 0.15 M phosphate buffer, pH 7.4, to prepare an enzyme solution. An enzyme solution was prepared from a rabbit small intestine on normal diet, which was defined as an enzyme solution derived from small intestine.
(§2) 10 μl of an enzyme solution was added to the resulting solution for reaction at 37° C. for […] (small intestine-derived enzyme solution was subjected to reaction for 3 minutes). Subsequently, the reaction was terminated by adding 3 ml of chloroform/methanol (2/1) and 0.5 ml of 0.04 N hydrochloric acid to the reaction solution, to extract lipid. The solvent layer was concentrated and dried, which was then dissolved in hexane and spotted on a TLC plate (manufactured by Merck, Co.). The plate was eluted with hexane:ether:acetic acid (75:25:1). The radioactivity of the resulting cholesterol ester fraction was assayed by BAS 2000 (manufactured by Fuji Photo Film, Co., Ltd.). Compared with the radioactivity of a control prepared by single addition of DMSO, IC50 was determined.

In the next data set the target is T2, ACAT in J774 cells (Mus musculus, UniProt Q61263).
T2 construct: J774 cells or HepG2 cells were inoculated on a 24-well plate; endogenous in cells; host or cells: J774 cells
T2 sequence (Q61263 1-540): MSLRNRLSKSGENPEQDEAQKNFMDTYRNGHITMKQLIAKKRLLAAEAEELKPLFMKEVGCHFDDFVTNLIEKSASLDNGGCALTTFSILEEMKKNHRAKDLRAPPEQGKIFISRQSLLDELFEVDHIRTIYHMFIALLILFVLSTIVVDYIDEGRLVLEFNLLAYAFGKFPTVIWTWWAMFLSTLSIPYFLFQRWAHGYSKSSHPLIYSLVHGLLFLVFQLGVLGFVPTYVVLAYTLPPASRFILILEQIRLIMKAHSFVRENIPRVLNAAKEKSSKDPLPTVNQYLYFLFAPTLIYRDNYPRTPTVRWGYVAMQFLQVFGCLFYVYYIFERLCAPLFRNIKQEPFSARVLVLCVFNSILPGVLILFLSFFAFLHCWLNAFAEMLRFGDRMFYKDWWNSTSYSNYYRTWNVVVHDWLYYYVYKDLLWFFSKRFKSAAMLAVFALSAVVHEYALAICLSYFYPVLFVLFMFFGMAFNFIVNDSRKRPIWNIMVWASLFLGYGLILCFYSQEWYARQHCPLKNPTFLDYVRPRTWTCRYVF
The experiment in a line: ACAT inhibitory action (anti-foaming action) in J774 cells, cholesterol ester formation. The data set is classed as cell-based. The note with it: for IC50: J774 cells, 10 μg/ml 25-OH cholesterol, 18-hr culturing, cholesterol ester per protein, read-out: IC50 (μM) of J774-derived enzyme; for IC50 (HepG2)/IC50 (J774): ratio HepG2 / J774. The method, then: (§3) J774 cells or HepG2 cells were inoculated on a 24-well plate; J774 cells and HepG2 cells were cultured in DMEM and MEM culture broths (each of the broths containing 10% calf fetus serum), respectively, in a 5% CO2 incubator at 37° C. for 24 hours. […] After discarding the culture media, the resulting cultures were rinsed twice with PBS and extracted with 1.5 ml of hexane:isopropanol (3:2), for concentration and drying. The extracts were dissolved in isopropanol containing 0.2 ml of 10% Triton X-100, to assay total cholesterol (TC) and free cholesterol (FC) by using Cholesterol E Test WAKO (manufactured by Wako Pure Chemicals, Co.) and Free Cholesterol E Test Wako (manufactured by Wako Pure Chemicals, Co.). […] Based on the difference between TC and FC, cholesterol ester was calculated per protein, to determine IC50, compared with the calculated control IC50 value.

Data set [2] addresses ACAT, vascular wall-derived enzyme (Oryctolagus cuniculus, UniProt G1SUQ0). The experiment in a line: ACAT inhibitory action, vascular wall-derived enzyme (microsome from thoracic aorta of cholesterol-fed rabbit). The data set is classed as biochemical. The note with it: 14C-Oleoyl-CoA, 37° C. The method, then: as §1, §2
In the next data set the test system is ACAT in HepG2 cells. Briefly: ACAT inhibitory action in HepG2 cells, cholesterol ester formation. The data set is classed as cell-based. The note with it: 10 μg/ml 25-OH cholesterol, 18-hr culturing, cholesterol ester per protein, read-out: IC50 (μM) of HepG2-derived enzyme. The protocol:
as §3

Sequence of ACAT, vascular wall-derived enzyme (G1SUQ0 entry or part of it): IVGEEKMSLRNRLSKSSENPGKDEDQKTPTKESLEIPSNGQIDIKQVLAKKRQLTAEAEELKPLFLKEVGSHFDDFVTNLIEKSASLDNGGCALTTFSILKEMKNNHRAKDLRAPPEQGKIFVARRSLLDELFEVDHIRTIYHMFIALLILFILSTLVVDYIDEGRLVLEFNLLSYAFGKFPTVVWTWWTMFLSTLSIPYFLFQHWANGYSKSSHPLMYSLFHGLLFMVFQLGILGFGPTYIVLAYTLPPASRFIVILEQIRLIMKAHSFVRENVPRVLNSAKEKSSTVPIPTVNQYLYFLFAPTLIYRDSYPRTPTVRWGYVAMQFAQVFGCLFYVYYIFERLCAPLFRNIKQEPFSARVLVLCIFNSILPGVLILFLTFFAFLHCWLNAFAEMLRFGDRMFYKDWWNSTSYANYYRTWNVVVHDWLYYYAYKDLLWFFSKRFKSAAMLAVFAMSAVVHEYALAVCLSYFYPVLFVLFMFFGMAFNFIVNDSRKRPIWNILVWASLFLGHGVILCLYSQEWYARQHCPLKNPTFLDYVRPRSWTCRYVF

Compound `CCCCCCCCCN(CC(C)(C)C)C(=O)N[C@H]1CCCC[C@@H]1OC(=O)CCNC(=O)C1OC(C)(C)OCC1(C)C` (stereo partly drawn) [Control 3, N-(2,2,5,5-tetramethyl-1,3-dioxan-4-ylcarbonyl)-β-alanine 2(S)-[N′-(2,2-dimethylpropyl)-N′-nonylureido]-1(S)-cyclohexyl ester, reference compound] showed an IC50 in data set [1] of 0.056 µM. In addition, at ACAT in J774 cells, the IC50 worked out at 0.32 µM and the “IC50 (HepG2)/IC50 (J774)” value is 4.3.
Consider `CCCCCCCN(CCCCCSc1nc(-c2ccccc2)c(-c2ccccc2)[nH]1)c1nc2ccccc2o1` [Control 4, reference compound], for which the IC50 was determined as 0.026 µM in data set [2], 0.037 µM in data set [1], 0.12 µM on ACAT in J774 cells and 0.75 µM in the data set with ACAT in HepG2 cells. Moreover, the “IC50 (HepG2)/IC50 (J774)” value at ACAT in J774 cells stood at 6.3.
In turn, `COC(=O)c1cccc2nc(SCCCCCC(=O)Nc3c(C(C)C)cccc3C(C)C)oc12` [Example 46, 6-(7-methoxycarbonylbenzoxazol-2-ylthio)-N-(2,6-diisopropylphenyl)hexanamide] displayed a melting point of 118 to 119 °C. Also, at ACAT in J774 cells, the IC50 was 0.098 µM and the “IC50 (HepG2)/IC50 (J774)” value was determined as 303.4. Moreover, the IC50 with ACAT in HepG2 cells was determined as 29.8 µM.
Taken in the same sequence, the figures for `CC(C)c1cccc(C(C)C)c1NC(=O)CCCCCCCCSc1nc2cccc(C(F)(F)F)c2o1` [Example 75, 9-(7-trifluoromethylbenzoxazol-2-ylthio)-N-(2,6-diisopropylphenyl)nonanamide] were 82 to 84 °C, 0.012 µM, 7.4 and 0.089 µM.
Compound `CC(C)c1cccc(C(C)C)c1NC(=O)CCCCCSc1nc2cccc(-c3cc[nH]n3)c2o1` [Example 88, 6-[7-(pyrazol-3-yl)benzoxazol-2-ylthio]-N-(2,6-diisopropylphenyl)hexanamide] returned a melting point of 174 to 176 °C. Moreover, on ACAT in J774 cells, the IC50 is 1.64 µM and the “IC50 (HepG2)/IC50 (J774)” value came to 6.1. Besides, in the data set with ACAT in HepG2 cells, the IC50 is 10 µM.
